Laboratory results taken from US11661423B2, “Heterocyclic compounds as RET kinase inhibitors” (Cancer Research Technology Limited, priority 2016, dated 2023).

molecular target: RET (Homo sapiens (Human), UniProt P07949); experiment: RET enzyme assay (CisBio HTRF kinEASE); type: biochemical
Sequence (P07949 29-1114): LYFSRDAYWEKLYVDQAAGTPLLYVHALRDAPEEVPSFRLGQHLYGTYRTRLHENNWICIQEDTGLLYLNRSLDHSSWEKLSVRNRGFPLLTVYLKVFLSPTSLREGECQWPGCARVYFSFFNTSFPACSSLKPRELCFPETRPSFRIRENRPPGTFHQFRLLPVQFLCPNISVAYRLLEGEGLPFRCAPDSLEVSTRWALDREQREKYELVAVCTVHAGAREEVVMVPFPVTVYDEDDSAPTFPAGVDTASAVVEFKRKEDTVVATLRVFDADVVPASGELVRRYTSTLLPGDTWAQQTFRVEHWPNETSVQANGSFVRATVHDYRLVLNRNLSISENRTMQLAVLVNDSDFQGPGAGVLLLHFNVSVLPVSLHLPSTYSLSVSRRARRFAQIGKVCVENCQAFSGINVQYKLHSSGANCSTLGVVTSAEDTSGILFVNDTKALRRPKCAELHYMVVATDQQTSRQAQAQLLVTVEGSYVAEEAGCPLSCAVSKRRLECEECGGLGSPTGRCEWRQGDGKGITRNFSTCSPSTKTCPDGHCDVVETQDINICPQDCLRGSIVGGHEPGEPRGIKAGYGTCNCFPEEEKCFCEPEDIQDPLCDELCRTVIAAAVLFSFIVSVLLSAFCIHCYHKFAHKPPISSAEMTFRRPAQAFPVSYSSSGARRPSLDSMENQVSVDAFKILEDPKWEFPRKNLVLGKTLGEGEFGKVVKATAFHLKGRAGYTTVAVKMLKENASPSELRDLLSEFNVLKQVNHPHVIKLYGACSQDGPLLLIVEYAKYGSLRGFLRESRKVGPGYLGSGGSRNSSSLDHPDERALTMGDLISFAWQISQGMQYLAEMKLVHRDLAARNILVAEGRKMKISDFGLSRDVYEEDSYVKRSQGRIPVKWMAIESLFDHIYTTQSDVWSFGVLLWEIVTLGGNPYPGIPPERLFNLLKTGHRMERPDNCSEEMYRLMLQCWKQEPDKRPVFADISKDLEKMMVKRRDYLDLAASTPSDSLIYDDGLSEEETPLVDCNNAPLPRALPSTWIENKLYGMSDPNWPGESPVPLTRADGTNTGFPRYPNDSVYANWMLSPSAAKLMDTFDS

Row | Structure (SMILES) | activity in the assays described in the Examples section
1 | CC(C)(C)n1nc(-c2cc3ncccc3[nH]2)c2c(N)ncnc21 [1-tert-butyl-3-(1H-pyrrolo[3,2-b]pyridin-2-yl)pyrazolo[3,4-d]pyrimidin-4-amine] | did not exhibit the desired activity
2 | Nc1ncnc2c1c(-c1[nH]c3ncccc3c1Cl)nn2CC(=O)O [2-(4-amino-3-(3-chloro-1H-pyrrolo[2,3-b]pyridin-2-yl)-1H-pyrazolo[3,4-d]pyrimidin-1-yl)acetic acid] | did not exhibit the desired activity
3 | Cn1nc(-c2[nH]c3ncccc3c2Cl)c2c(N)ncnc21 [Example 65, 3-(3-Chloro-1H-pyrrolo[2,3-b]pyridin-2-yl)-1-methyl-pyrazolo[3,4-d]pyrimidin-4-amine] | did not exhibit the desired activity
4 | Nc1ncnc2c1c(-c1[nH]c3ccccc3c1Cl)nn2CC1CCNC1 (centres unmarked) [3-(3-chloro-1H-indol-2-yl)-1-(pyrrolidin-3-ylmethyl)-1H-pyrazolo[3,4-d]pyrimidin-4-amine] | did not exhibit the desired activity
5 | CC(C)CCn1nc(-c2[nH]c3ccccc3c2Cl)c2c(N)ncnc21 [3-(3-Chloro-1H-indol-2-yl)-1-isopentyl-1H-pyrazolo[3,4-d]pyrimidin-4-amine] | did not exhibit the desired activity
